Test results from patent publication US20250025443A1, “COMPOUNDS AND METHODS FOR TREATING CORONA VIRUSES” (CLEAR CREEK BIO, INC., priority 2021, published 2025).

What follows are compounds tested against SARS-CoV-2 Papain-Like Protease (PLpro) (Severe acute respiratory syndrome coronavirus 2 (2019-nCoV) (SARS-CoV-2), UniProt P0DTD1) (assay: biochemical). Conditions: PLpro enzymatic fluorescence assay; class symbols; read-out: PLpro IC50.
In the case of `CNCCOc1ccc(C)c(C(=O)NC2(c3cc(-c4ccnn4C)cc4ncccc34)CC2)c1` [Compound 639, 2-Methyl-N-(1-(7-(1-methyl-1H-pyrazol-5-yl)quinolin-5-yl)cyclopropyl)-5-(2-(methylamino)ethoxy)benzamide], the IC50 is reported as less than 100 nM. `Cc1ccc(OC[C@@H]2CCN2C)cc1C(=O)NC1(c2cc(-c3ccc(Cl)s3)cc3ncccc23)CC1` [Compound 623, (S)-N-(1-(7-(5-Chlorothiophen-2-yl)quinolin-5-yl)cyclopropyl)-2-methyl-5-((1-methylazetidin-2-yl)methoxy)benzamide] gave an IC50 of less than 100 nM. Compound `Cc1nnc(-c2cc(C3(NC(=O)c4cc(OC[C@@H]5CCN5C)ccc4C)CC3)c3cccnc3c2)s1` [Compound 691, (S)-2-Methyl-N-(1-(7-(5-methyl-1,3,4-thiadiazol-2-yl)quinolin-5-yl)cyclopropyl)-5-((1-methylazetidin-2-yl)methoxy)benzamide] has an IC50 of less than 100 nM. For `Cc1ccc(OC[C@@H]2CCN2C)cc1C(=O)NC1(c2cc(-c3ccc(CN(C)C)s3)cc3ncccc23)CC1` [Compound 756, (S)—N-(1-(7-(5-((Dimethylamino)methyl)thiophen-2-yl)quinolin-5-yl)cyclopropyl)-2-methyl-5-((1-methylazetidin-2-yl)methoxy)benzamide], the IC50 was less than 100 nM. `Cc1cc(-c2cc(C3(NC(=O)c4cc(OC[C@@H]5CCN5)ccc4C)CC3)c3cccnc3c2)n[nH]1` [Compound 635, (S)-5-(Azetidin-2-ylmethoxy)-2-methyl-N-(1-(7-(5-methyl-1H-pyrazol-3-yl)quinolin-5-yl)cyclopropyl)benzamide] showed an IC50 of less than 100 nM. `CCCc1cc(C2(NC(=O)c3cc(OCC4CCN4C)ccc3C)CC2)c2ccccc2c1` (centres unmarked) [Compound 504, 2-Methyl-5-((1-methylazetidin-2-yl)methoxy)-N-(1-(3-propylnaphthalen-1-yl)cyclopropyl)benzamide] gave an IC50 of less than 100 nM. For `COc1cc(C2(NCc3cc(OCCN)ccc3C)CC2)c2cccnc2c1` [Compound 513], the IC50 was less than 100 nM. Work on `Cc1ccc(OC[C@@H]2CCN2)cc1C(=O)NC1(c2cc(-c3ccnn3C)cc3ncccc23)CC1` [Compound 649, (S)-5-(Azetidin-2-ylmethoxy)-2-methyl-N-(1-(7-(1-methyl-1H-pyrazol-5-yl)quinolin-5-yl)cyclopropyl)benzamide] yielded an IC50 of less than 100 nM. `Cc1ccc(OC[C@@H]2CCN2)cc1C(=O)NC1(c2cc(-c3ccc(F)cc3)cc3ncccc23)CC1` [Compound 675, (S)-5-(Azetidin-2-ylmethoxy)-N-(1-(7-(4-fluorophenyl)quinolin-5-yl)cyclopropyl)-2-methylbenzamide] showed an IC50 of less than 100 nM. In the case of `CC(C)=Cc1cc(C2(NC(=O)c3cc(OC[C@@H]4CCN4C)ccc3C)CC2)c2cccnc2c1` [Compound 603, (S)-2-Methyl-5-((1-methylazetidin-2-yl)methoxy)-N-(1-(7-(2-methylprop-1-en-1-yl)quinolin-5-yl)cyclopropyl)benzamide], the IC50 is reported as less than 100 nM. For `Cc1nnc(-c2cc(C3(NC(=O)c4cc(OC[C@@H]5CCN5C)ccc4C)CC3)c3cccnc3c2)o1` [Compound 693, (S)-2-Methyl-N-(1-(7-(5-methyl-1,3,4-oxadiazol-2-yl)quinolin-5-yl)cyclopropyl)-5-((1-methylazetidin-2-yl)methoxy)benzamide], the IC50 was less than 100 nM. For `COc1cc(C2(NC(=O)c3cc(OC[C@@H]4CCN4C)ccc3C)CC2)c2ncccc2c1` [Compound 761, (S)-N-(1-(6-Methoxyquinolin-8-yl)cyclopropyl)-2-methyl-5-((1-methylazetidin-2-yl)methoxy)benzamide], the IC50 was 100 to 1000 nM.

Same assay, conditions: SARS-CoV-2 PLpro enzymatic fluorescence assay; read-out: PLpro IC50
In the case of `Cc1ccc(OCC2(C)CCN2C)cc1C(=O)NC1(c2cccc3ccccc23)CC1` (centres unmarked) [Compound 404, 5-((1,2-Dimethylazetidin-2-yl)methoxy)-2-methyl-N-(1-(naphthalen-1-yl)cyclopropyl)benzamide], the IC50 is reported as less than 100 nM. For `Cc1ccc(OC[C@H]2C[C@H](F)CN2C)cc1C(=O)NC1(c2cccc3ccccc23)CC1` (single isomer, unassigned) [Compound 441], the IC50 was less than 100 nM. In the case of `Cc1cc2c(cc1C(=O)NC1(c3cccc4ccccc34)CC1)NCCN2` [Compound 297, 7-Methyl-N-(1-(naphthalen-1-yl)cyclopropyl)-1,2,3,4-tetrahydroquinoxaline-6-carboxamide], the IC50 is reported as 100 to 1000 nM. `Cc1ccc(OCCN(C)C)cc1C(=O)NC1(c2cccc(-c3cccs3)c2)CC1` [Compound 355, 5-(2-(Dimethylamino)ethoxy)-2-methyl-N-(1-(3-(thiophen-2-yl)phenyl)cyclopropyl)benzamide] gave an IC50 of 100 to 1000 nM. Work on `COc1cc(C2(NC(=O)c3cc(CC[C@@H]4CCC4C)ccc3C)CC2)c2ccncc2c1` (some centres unmarked) [Compound 538] yielded an IC50 of less than 100 nM. In the case of `CC[S+]([O-])c1cc(C2(NC(=O)c3cc(OCCN(C)C)ccc3C)CC2)c2ccccc2c1` (centres unmarked) [Compound 423, 5-(2-(Dimethylamino)ethoxy)-N-(1-(3-(ethylsulfinyl)naphthalen-1-yl)cyclopropyl)-2-methylbenzamide], the IC50 is reported as less than 100 nM. In the case of `Cc1ccc(OCC2CCN2C)cc1C(=O)NC1(c2cc(C#N)cc3ccccc23)CC1` (centres unmarked) [Compound 484, N-(1-(3-Cyanonaphthalen-1-yl)cyclopropyl)-2-methyl-5-((1-methylazetidin-2-yl)methoxy)benzamide], the IC50 is reported as less than 100 nM. `COc1cc(C(C)N2CCC(C(=O)NCc3cccc(F)c3)CC2)c2ccccc2c1` (centres unmarked) [Compound 524, N-(3-Fluorobenzyl)-1-(1-(3-methoxynaphthalen-1-yl)ethyl)piperidine-4-carboxamide] gave an IC50 of 100 to 1000 nM. `Cc1cc(C#Cc2ccccc2)c(N)cc1C(=O)NC1(c2cccc3ccccc23)CC1` [Compound 217, 5-Amino-2-methyl-N-(1-(naphthalen-1-yl)cyclopropyl)-4-(phenylethynyl)benzamide] gave an IC50 greater than 5000 nM. In the case of `Cc1ccc(N)cc1C(=O)NC(c1cccc2ccccc12)C1CCOCC1` (centres unmarked) [Compound 109, 5-Amino-2-methyl-N-(naphthalen-1-yl(tetrahydro-2H-pyran-4-yl)methyl)benzamide], the IC50 is reported as greater than 5000 nM. `Cc1ccc(N)cc1C(=O)NC(c1cccc2ccccc12)C(F)F` (centres unmarked) [Compound 185, 5-Amino-N-(2,2-difluoro-1-(naphthalen-1-yl)ethyl)-2-methylbenzamide] showed an IC50 of 1000 to 5000 nM. `Cc1ccc(OCCN(C)C)cc1C(=O)NC1(c2ccc(F)cc2)CC1` [Compound 259, 5-(2-(Dimethylamino)ethoxy)-N-(1-(4-fluorophenyl)cyclopropyl)-2-methylbenzamide] showed an IC50 greater than 5000 nM. Work on `C#CC(NC(=O)c1cc(OCC2CCN2C)ccc1C)c1cccc2ccccc12` (centres unmarked) [Compound 448, 2-Methyl-5-((1-methylazetidin-2-yl)methoxy)-N-(1-(naphthalen-1-yl)prop-2-yn-1-yl)benzamide] yielded an IC50 of 1000 to 5000 nM. `Cc1ccc(OC[C@H]2C[C@H](F)CN2)cc1C(=O)NC1(c2cccc3ccccc23)CC1` (single isomer, unassigned) [Compound 442] was tested, and the IC50 was less than 100 nM. `Cc1ccc(C(N)=O)cc1C(=O)NC1(c2cccc3ccccc23)CC1` [Compound 257] gave an IC50 of 100 to 1000 nM. For `Cc1ccc(OCCCN)cc1C(=O)NC1(c2cccc3ccccc23)CC1` [Compound 316, 5-(3-Aminopropoxy)-2-methyl-N-(1-(naphthalen-1-yl)cyclopropyl)benzamide], the IC50 was 100 to 1000 nM. With `Cc1ccc(N)cc1NC(=O)C(C)c1cccc2ccccc12` (centres unmarked) [Compound 163, N-(5-Amino-2-methylphenyl)-2-(naphthalen-1-yl)propanamide] the IC50 was greater than 5000 nM.
